Where a name gives a salt, the structure may show the parent alone.
Biological target: Rho-associated protein kinase 2 (Homo sapiens, UniProt O75116)
Assay: ROCK2 kinase inhibitor potency, dose response, biochemical, Kinase-Glo luminescence, S6 peptide, 1536-well (AID 644)
Conditions: not given

Rho-associated protein kinase 2, sequence (O75116 whole entry): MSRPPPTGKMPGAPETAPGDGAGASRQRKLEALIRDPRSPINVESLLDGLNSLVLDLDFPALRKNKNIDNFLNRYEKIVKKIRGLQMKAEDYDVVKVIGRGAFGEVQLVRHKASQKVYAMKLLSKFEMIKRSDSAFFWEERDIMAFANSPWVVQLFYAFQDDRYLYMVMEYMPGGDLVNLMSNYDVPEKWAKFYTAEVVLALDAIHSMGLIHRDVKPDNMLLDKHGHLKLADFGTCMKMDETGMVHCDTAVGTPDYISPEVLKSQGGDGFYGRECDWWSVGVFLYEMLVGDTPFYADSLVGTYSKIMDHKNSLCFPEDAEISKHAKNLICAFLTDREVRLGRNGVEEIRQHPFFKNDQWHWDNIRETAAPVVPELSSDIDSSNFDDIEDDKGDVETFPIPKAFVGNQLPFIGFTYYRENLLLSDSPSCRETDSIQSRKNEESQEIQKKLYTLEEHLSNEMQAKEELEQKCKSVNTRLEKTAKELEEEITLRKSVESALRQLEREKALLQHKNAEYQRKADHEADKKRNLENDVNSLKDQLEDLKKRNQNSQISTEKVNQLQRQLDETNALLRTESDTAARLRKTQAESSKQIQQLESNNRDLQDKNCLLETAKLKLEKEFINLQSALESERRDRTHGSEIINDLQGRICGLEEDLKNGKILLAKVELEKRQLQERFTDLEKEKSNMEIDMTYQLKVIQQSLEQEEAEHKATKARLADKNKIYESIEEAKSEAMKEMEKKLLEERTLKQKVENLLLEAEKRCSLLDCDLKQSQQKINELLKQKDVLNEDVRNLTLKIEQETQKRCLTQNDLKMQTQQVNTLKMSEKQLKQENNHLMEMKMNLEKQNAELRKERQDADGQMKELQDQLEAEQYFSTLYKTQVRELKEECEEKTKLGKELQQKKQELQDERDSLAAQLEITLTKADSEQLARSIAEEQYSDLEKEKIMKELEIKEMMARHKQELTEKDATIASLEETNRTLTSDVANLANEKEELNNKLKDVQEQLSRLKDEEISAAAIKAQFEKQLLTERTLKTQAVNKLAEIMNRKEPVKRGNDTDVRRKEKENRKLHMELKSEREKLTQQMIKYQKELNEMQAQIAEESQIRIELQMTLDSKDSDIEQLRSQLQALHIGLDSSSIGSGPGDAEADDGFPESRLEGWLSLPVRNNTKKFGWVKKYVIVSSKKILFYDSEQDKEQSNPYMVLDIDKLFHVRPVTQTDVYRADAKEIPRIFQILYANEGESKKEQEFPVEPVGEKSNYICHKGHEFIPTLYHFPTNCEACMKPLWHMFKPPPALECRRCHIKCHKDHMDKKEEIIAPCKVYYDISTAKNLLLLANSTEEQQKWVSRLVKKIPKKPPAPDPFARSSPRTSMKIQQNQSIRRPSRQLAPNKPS

Compared with `O=C(Nc1nc(-c2ccncc2)cs1)C1COc2ccccc2O1` (stereo not drawn), `CC(=O)n1cc(-c2ccncc2)c2ccccc21` [1-(3-pyridin-4-yl-1-indolyl)ethanone;hydrochloride] is higher in IC50: less than 0.00303 µM for the first, 8.16 µM for the second. The first is the more potent here.

Going from `C1=C(c2c[nH]c3ccccc23)CCNC1` to `c1ccc2c(-c3ccncc3)c[nH]c2c1`, the IC50 falls from 2.53 µM to 0.8 µM (3.2-fold).

`Nc1nonc1-c1nc2ccccc2[nH]1` and `Nc1ccc2cn[nH]c2c1` cannot be ordered by IC50: 23.1 µM for the first, greater than 19.9 µM for the second.

Compared with `COc1ccc2[nH]c(=O)c3c(c2c1)OC(C)(C)C=C3`, `COc1cc(N=CC2C(=O)Nc3ccccc32)cc(OC)c1OC` (stereo not drawn) is lower in IC50: greater than 19.9 µM for the first, 10.5 µM for the second. The second is the more potent here.

Compared with `O=C(CSc1nnc(-c2ccncc2)[nH]1)c1ccccc1`, `O=C(Nn1c(=S)[nH]c2ccccc2c1=O)c1ccncc1` is higher in IC50: 0.765 µM for the first, greater than 19.9 µM for the second. The first is the more potent here.

`Cc1[nH]nc2c1C(c1ccc(-c3ccccc3C#N)o1)C(C#N)C(=N)O2` (stereo not drawn) and `CN1c2cccc3cccc(c23)C1N=O` (stereo not drawn) [1-Methyl-1H-benzo[cd]indol-2-one oxime] cannot be ordered by IC50: greater than 19.9 µM for the first, greater than 19.9 µM for the second.

First: C[C@H]1CNCCN1S(=O)(=O)c1cccc2cnccc12
Second: Cc1cccc2cc(=O)[nH]c(C)c12 [1,8-dimethyl-2H-isoquinolin-3-one]
The IC50 of the first is lower: 0.1 µM for the first, greater than 59.6 µM for the second.

`CCN1C(=O)N(CC)C(O)(c2ccccc2)C1(O)c1ccccc1` (stereo not drawn) [1,3-diethyl-4,5-bis(oxidanyl)-4,5-diphenyl-imidazolidin-2-one] and `Nc1nc2ccccc2n1C(=O)CCc1ccccc1` [1-(2-Amino-benzoimidazol-1-yl)-3-phenyl-propan-1-one] cannot be ordered by IC50: greater than 59.6 µM for the first, greater than 59.6 µM for the second.

`CC(=O)c1cccc(NC(=O)NCc2cccs2)c1` [1-(3-acetylphenyl)-3-(2-thenyl)urea] and `CC(=O)c1ccc(OCC(O)COc2ccc(C(C)=O)cc2)cc1` [1-[4-[3-(4-acetylphenoxy)-2-hydroxy-propoxy]phenyl]ethanone] cannot be ordered by IC50: greater than 59.6 µM for the first, greater than 59.6 µM for the second.

`CC(C)(C)C(=O)c1sc(Nc2ccccc2)nc1N` [1-(4-amino-2-anilino-1,3-thiazol-5-yl)-2,2-dimethyl-1-propanone] and `CCn1cc(C(=O)Nn2cnnc2)c(=O)c2ccc(C)nc21` [1-ethyl-4-keto-7-methyl-N-(1,2,4-triazol-4-yl)-1,8-naphthyridine-3-carboxamide] cannot be ordered by IC50: greater than 59.6 µM for the first, greater than 59.6 µM for the second.

Compared with `COc1cc(C=Nn2nnnc2N)ccc1OCc1ccc(F)cc1` [1-[[4-[(4-fluorophenyl)methoxy]-3-methoxy-phenyl]methylideneamino]-1,2,3,4-tetrazol-5-amine], `N#Cc1c(N=Cc2cccs2)sc2c1CCCCC2` [2-(2-thenylideneamino)-5,6,7,8-tetrahydro-4H-cyclohepta[b]thiophene-3-carbonitrile] is higher in IC50: 17.5 µM for the first, greater than 59.6 µM for the second.

For `N#Cc1c(N=Cc2ccco2)sc2c1CCCCC2` [2-(2-furanylmethylideneamino)-5,6,7,8-tetrahydro-4H-cyclohepta[b]thiophene-3-carbonitrile], the IC50 was greater than 19.9 µM.

Same assay, conditions: inactive by the depositor's call

Going from `COC1(OC)N=C(N)C2(C#N)C(c3ccc4c(c3)OCO4)C12C#N` (stereo not drawn) to `CN1C(=O)CSc2ccc(NC(=O)NCc3cccnc3)cc21` [1-(3-keto-4-methyl-1,4-benzothiazin-6-yl)-3-(3-pyridylmethyl)urea], the IC50 falls from 47.9 µM to 10.1 µM (4.7-fold).

`c1coc(CNc2ncnc3[nH]cnc23)c1` and `Nc1ncnc2c1cnn2-c1ccccc1` [1-Phenyl-1H-pyrazolo[3,4-d]pyrimidin-4-ylamine] are within 1.5-fold of each other in IC50: 21.4 µM for the first, 20.5 µM for the second.

`Brc1ccc2[nH]ncc2c1` and `Nc1ccc2[nH]ncc2c1` are within 1.5-fold of each other in IC50: 16.3 µM for the first, 12.9 µM for the second.

Compared with `Cc1c(C)n(C)c2ccc(C(=O)NCc3cccs3)cc12` [1,2,3-trimethyl-N-(2-thenyl)indole-5-carboxamide], `O=C(Nc1ccncc1)Nc1ccc(F)cc1F` [1-(2,4-difluorophenyl)-3-(4-pyridyl)urea] is 1.6-fold higher in IC50: 12 µM for the first, 19 µM for the second. The first is the more potent here.

First: CCN1CCN(Cc2nnnn2C(C)(C)C)CC1 [1-(1-tert-Butyl-1H-tetrazol-5-ylmethyl)-4-ethyl-piperazine]
Second: NC(=O)c1sc2nc(N3CCCCC3)c3c(c2c1N)CCCC3 [1-amino-5-(1-piperidinyl)-6,7,8,9-tetrahydrothieno[2,3-c]isoquinoline-2-carboxamide]
The IC50 of the first is 8.2-fold lower: 17.4 µM for the first, 143 µM for the second.

Source: BindingDB's records for doi:10.7270/Q2F769ZM (The Scripps Research Institute Molecular Screening Center, 2007)
